The text below walks through data of patent US20230102554A1 (GB002, INC., priority 2019, published 2023).

Experiment [1] addresses T1, Human PDGFRα, cytoplasmic domain (GST-PDGFRα) (Homo sapiens, UniProt P16234).
T1 construct: made in house
Description: Human PDGFRα biochemical inhibition assay (off-chip Mobility Shift Assay).

Experiment [2] concerns the target T2, Human PDGFRβ, cytoplasmic domain (GST-PDGFRβ) (Homo sapiens, UniProt P09619).
T2 construct: made in house
Description: Human PDGFRβ biochemical inhibition assay (off-chip Mobility Shift Assay). The method, boiled down: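 GST-tagged cytoplasmic domain (aa 557-1106) from baculovirus was incubated 1 h at room temperature with compound, CSKtide, ATP at Km and Mg²⁺ in HEPES buffer, pH 7.5. Phosphorylated and unphosphorylated peptide were separated by off-chip mobility shift, and the product ratio P/(P+S) gave percent inhibition.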

In general, IC50 refers to the point on the concentration scale where inhibition reaches its midpoint.

T2 sequence (P09619 with tags, fused parts or gaps): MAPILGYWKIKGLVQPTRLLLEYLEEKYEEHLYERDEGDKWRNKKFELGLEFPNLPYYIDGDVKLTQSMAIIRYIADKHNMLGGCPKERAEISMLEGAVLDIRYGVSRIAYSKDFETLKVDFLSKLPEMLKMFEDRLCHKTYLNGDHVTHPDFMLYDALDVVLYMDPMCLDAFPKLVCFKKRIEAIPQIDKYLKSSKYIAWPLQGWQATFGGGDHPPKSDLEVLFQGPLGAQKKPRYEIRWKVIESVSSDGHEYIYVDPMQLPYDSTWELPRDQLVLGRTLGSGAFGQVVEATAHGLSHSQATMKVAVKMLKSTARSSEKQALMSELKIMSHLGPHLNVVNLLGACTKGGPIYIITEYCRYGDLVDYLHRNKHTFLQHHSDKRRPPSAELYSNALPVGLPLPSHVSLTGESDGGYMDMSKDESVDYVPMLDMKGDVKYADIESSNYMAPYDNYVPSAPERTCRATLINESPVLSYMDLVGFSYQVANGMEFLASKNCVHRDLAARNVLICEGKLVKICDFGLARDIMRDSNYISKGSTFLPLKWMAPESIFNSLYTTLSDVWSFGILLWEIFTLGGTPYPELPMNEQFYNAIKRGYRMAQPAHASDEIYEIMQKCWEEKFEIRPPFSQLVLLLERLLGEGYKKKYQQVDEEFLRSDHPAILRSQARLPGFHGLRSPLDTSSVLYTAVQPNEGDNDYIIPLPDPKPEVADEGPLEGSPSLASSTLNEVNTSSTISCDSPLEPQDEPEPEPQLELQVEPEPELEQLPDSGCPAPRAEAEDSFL
T1 sequence (P16234 550-1089 T674I): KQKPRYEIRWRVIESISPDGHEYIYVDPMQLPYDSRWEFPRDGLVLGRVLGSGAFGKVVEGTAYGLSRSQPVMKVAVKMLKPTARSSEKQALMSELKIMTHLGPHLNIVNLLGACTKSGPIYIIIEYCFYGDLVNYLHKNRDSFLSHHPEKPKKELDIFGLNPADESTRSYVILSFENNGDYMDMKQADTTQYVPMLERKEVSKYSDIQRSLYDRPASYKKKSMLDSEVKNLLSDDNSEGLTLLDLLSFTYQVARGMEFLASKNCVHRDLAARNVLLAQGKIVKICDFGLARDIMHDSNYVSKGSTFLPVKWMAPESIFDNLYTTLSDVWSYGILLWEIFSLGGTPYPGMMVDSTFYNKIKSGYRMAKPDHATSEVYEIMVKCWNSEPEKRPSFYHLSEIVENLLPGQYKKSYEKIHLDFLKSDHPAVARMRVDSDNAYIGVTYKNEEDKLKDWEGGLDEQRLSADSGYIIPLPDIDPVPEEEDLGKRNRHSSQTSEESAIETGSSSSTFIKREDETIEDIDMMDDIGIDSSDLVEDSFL

For `CCn1cc2ncc(N[C@@H](C)c3cccc(NC(=O)Nc4cnn(CC5CC5)c4)c3)nc2n1` [Compound 741, (S)-1-(1-(cyclopropylmethyl)-1H-pyrazol-4-yl)-3-(3-(1-((2-ethyl-2H-pyrazolo[3,4-b]pyrazin-6-yl)amino)ethyl)phenyl)urea], the IC50 in experiment [1] is less than 300 nM; in experiment [2], not below 1000 nM.

Take `CCn1cc2ncc(N[C@@H](C)c3cccc(NC(=O)Nc4cnc(N(C)C)c(C)c4)c3)nc2n1` [Compound 742, (S)-1-(6-(dimethylamino)-5-methylpyridin-3-yl)-3-(3-(1-((2-ethyl-2H-pyrazolo[3,4-b]pyrazin-6-yl)amino)ethyl)phenyl)urea]: the concentration for half-maximal inhibition (IC50) in experiment [1] and in experiment [2] was less than 300 nM each time.

`CCn1cc2ncc(N[C@@H](C)c3cccc(NC(=O)Nc4cnc(NC)c(C)c4)c3)nc2n1` [Compound 743, (S)-1-(3-(1-((2-ethyl-2H-pyrazolo[3,4-b]pyrazin-6-yl)amino)ethyl)phenyl)-3-(5-methyl-6-(methylamino)pyridin-3-yl)urea]: the IC50 in experiment [1] was less than 300 nM; in experiment [2], 300 to 1000 nM.

Take `Cc1cncc(NC(=O)c2cccc([C@H](C)Nc3cnc4cnn(C)c4n3)c2)c1` [Compound 744, (S)-3-(1-((1-methyl-H-pyrazolo[3,4-b]pyrazin-6-yl)amino)ethyl)-N-(5-methylpyridin-3-yl)benzamide]: the IC50 in experiment [1] was less than 300 nM; in experiment [2], not below 1000 nM.

Consider `Cc1cncc(C(=O)Nc2cccc([C@H](C)Nc3cnn4ccc(-c5cnn(C)c5)cc34)c2)c1` [Compound 745, (S)-5-methyl-N-(3-(1-((5-(1-methyl-1H-pyrazol-4-yl)pyrazolo[1,5-a]pyridin-3-yl)amino)ethyl)phenyl) nicotinamide], for which the IC50 in experiment [1] and in experiment [2] was not below 1000 nM throughout.

As to `Cc1cncc(C(=O)Nc2cccc([C@H](C)Nc3cnn4cc(-c5cnn(C)c5)ccc34)c2)c1` [Compound 746, (S)-5-methyl-N-(3-(1-((6-(1-methyl-1H-pyrazol-4-yl)pyrazolo[1,5-a]pyridin-3-yl)amino)ethyl)phenyl) nicotinamide], the IC50 in experiment [1] and in experiment [2] was less than 300 nM throughout.

For the compound `Cc1cncc(C(=O)Nc2cccc([C@H](C)Nc3cncc4nn(C)cc34)c2)c1` [Compound 747, (S)-5-methyl-N-(3-(1-((2-methyl-2H-pyrazolo[3,4-c]pyridin-4-yl)amino)ethyl)phenyl)nicotinamide], the IC50 in experiment [1] and in experiment [2] was not below 1000 nM in each case.

For `Cc1cncc(C(=O)Nc2cccc([C@H](C)Nc3cncc4c3ccn4-c3cnn(C)c3)c2)c1` [Compound 748, (S)-5-methyl-N-(3-(1-((1-(1-methyl-1H-pyrazol-4-yl)-1H-pyrrolo[2,3-c]pyridin-4-yl)amino)ethyl)phenyl) nicotinamide], the IC50 is less than 300 nM in experiment [1] and 300 to 1000 nM in experiment [2].

As for `Cc1cncc(C(=O)Nc2cccc([C@H](C)Nc3cncc4[nH]ncc34)c2)c1` [Compound 749, (S)-N-(3-(1-((1H-pyrazolo[3,4-c]pyridin-4-yl)amino)ethyl)phenyl)-5-methylnicotinamide], the IC50 in experiment [1] and in experiment [2] was not below 1000 nM each time.

Consider `Cc1cncc(C(=O)Nc2cccc([C@H](C)Nc3cncc4c3cnn4C)c2)c1` [Compound 750, (S)-5-methyl-N-(3-(1-((1-methyl-1H-pyrazolo[3,4-c]pyridin-4-yl)amino)ethyl)phenyl)nicotinamide], for which the IC50 in experiment [1] and in experiment [2] was not below 1000 nM in each case.

On to `Cc1cncc(C(=O)Nc2cccc([C@H](C)Nc3cncc4c3c(C)nn4-c3cnn(C)c3)c2)c1` [Compound 751, (S)-5-methyl-N-(3-(1-((3-methyl-1-(1-methyl-1H-pyrazol-4-yl)-1H-pyrazolo[3,4-c]pyridin-4-yl)amino)ethyl)phenyl)nicotinamide], for which the IC50 in experiment [1] and in experiment [2] was not below 1000 nM in each case.
